{"source": "patent US11278549B2", "about": "“Method of treating obesity” (McMaster University, priority 2013, dated 2022)", "key": {"HFD-fed C57Bl6 mice [1]": {"tested_on": "HFD-fed C57Bl6 mice", "test": "Daily LP533401 treatment of HFD-fed C57Bl6 mice (prevention of obesity)", "assay_type": "in vivo", "from_the_text": "Animals. All experiments were approved by the McMaster University animal ethics committee and conducted under the Canadian guidelines for animal research. Tph1^−/− mice on C57BL/6 background were originally produced by gene mutation as described by Côté et al. (Proc Natl Acad Sci USA 100, 13525-13530 (2003)). Heterozygous (Tph1^+/−) mice were interbred to generate Tph1^−/− and Tph1^+/+ littermates. Starting at 8 weeks of age, male Tph1^−/− and Tph1^+/+ mice received either a chow (17% kcal fat; Diet 8640, Harlan Teklad, Madison, Wis.) or high-fat diet (HFD, 45% kcal fat, D12451, Research Diets; New Brunswick, N.J.) and water ad libitum for 12 weeks. For the initial chemical inhibitor studies, male C57BL/6 mice were purchased from Jackson's Laboratory at 6 weeks of age and immediately placed on the HFD described above. Starting at 8 weeks of age HFD-fed C57Bl6 mice received a daily intraperitoneal injection of the Tph1 inhibitor, LP533401 (25 mg/kg body weight, Dalton Pharma Services, Canada) dissolved in DMSO and diluted with water (5% DMSO final concentration) or equal volume of vehicle (5% DMSO in water). […] All mice were housed in SPF micro-isolator cages that were located in a room maintained at a constant temperature of 23° C. on a 12 h light/dark cycle with lights on at 0700.\n(§1) Metabolic monitoring was performed in a Comprehensive Lab Animal Monitoring System (CLAMS, Columbus Instruments, OH, USA) as previously described (Sachithanandan, N., et al. Hepatology 52, 1632-1642 (2010); O'Neill, H. M., et al. Proc Natl Acad Sci 108, 16092-16097 (2011)). CL-316,243 challenge experiments were also performed using the CLAMS equipment, as described. All metabolic monitoring occurred in a room kept between 26 and 28° C. Insulin and glucose tolerance tests were performed after 16 weeks of the diet intervention in Tph1^−/− mice experiments, and after 6-10 weeks of HFD weeks in LP533401 injection experiments as previously described (Steinberg, G. R., et al. J Biol Chem 285, 37198-37209 (2010)). For serum insulin and cytokine measurements, fasting and fed blood samples were collected by retro-orbital bleed between weeks 16-18 using a non-heparinized capillary tube and insulin, adiponectin, leptin were measured as described (Watt, M. J., et al. Nature medicine 12, 541-548 (2006)). Serum cytokines (MCP-1, TNFα, and IL-6) were measured using a multiplexed bead-based immunoassay (BD Biosciences, San Jose, Calif., USA) following the manufacturer's instructions.\nIn vivo glucose uptake and body composition: ^18F-Fluorodeoxyglucose (FDG) was synthesized at McMaster University by the nucleophilic substitution method using an FDG synthesizing instrument (GE Healthcare, Milwaukee, Wis., USA) and a cyclotron (Siemans 20-30 gb). After an 8 h fast, mice were injected with insulin (0.5 U/kg) diluted in 0.9% physiological saline and 5 minutes later received an intravenous administration of FDG (10.8±1.2 MBq/g). After injection, the mice were maintained under conscious conditions and warmed using a heating pad. At 28 minutes post saline or insulin injection mice were anaesthetized with isoflorane and at 30 minutes small-animal positron emission tomography (PET, Philip Mosaic, Andover, Mass.) and micro-computed tomography (CT) (Gamma Medica-Ideas Xspect System, NorthRidge, Calif.) imaging were performed using an acquisition time of 15 min for PET, followed by CT for 5 minutes. Images were reconstructed using 3D-RAMLA algorithm, with no attenuation correction and no correction for partial-volume effects of the tomograph as previously described^31. Quantification was performed by Region-of-interest (ROI) analysis using Amide Research Workplace software and FDG-tissue uptake calculated using the mean value of standard uptake values (SUV) as described (Palanivel R, Diabetologia. 55(11):3083-93 (2012)). […]"}, "HFD-fed C57Bl6 mice [2]": {"tested_on": "HFD-fed C57Bl6 mice", "test": "Metabolic cages and 18FDG-PET/CT of LP533401-treated HFD-fed mice", "assay_type": "in vivo", "experimental": "as §1\nIn vivo glucose uptake and body composition: ^18F-Fluorodeoxyglucose (FDG) was synthesized at McMaster University by the nucleophilic substitution method using an FDG synthesizing instrument (GE Healthcare, Milwaukee, Wis., USA) and a cyclotron (Siemans 20-30 gb). After an 8 h fast, mice were injected with insulin (0.5 U/kg) diluted in 0.9% physiological saline and 5 minutes later received an intravenous administration of FDG (10.8±1.2 MBq/g). After injection, the mice were maintained under conscious conditions and warmed using a heating pad. At 28 minutes post saline or insulin injection mice were anaesthetized with isoflorane and at 30 minutes small-animal positron emission tomography (PET, Philip Mosaic, Andover, Mass.) and micro-computed tomography (CT) (Gamma Medica-Ideas Xspect System, NorthRidge, Calif.) imaging were performed using an acquisition time of 15 min for PET, followed by CT for 5 minutes. Images were reconstructed using 3D-RAMLA algorithm, with no attenuation correction and no correction for partial-volume effects of the tomograph as previously described^31. Quantification was performed by Region-of-interest (ROI) analysis using Amide Research Workplace software and FDG-tissue uptake calculated using the mean value of standard uptake values (SUV) as described (Palanivel R, Diabetologia. 55(11):3083-93 (2012)). Analysis of total body fat composition were determined by using Amira software (Visage Imaging) and the mean value of voxels of segmented adipose were calculated and expressed relative to total body mass.\nTo examine the mechanisms contributing to weight loss in LP533401-treated mice, HFD-fed mice were placed in metabolic cages after 12 days of treatment before any change in body mass was evident in groups (Vehicle: 29.4±0.58 g vs. LP533401:28.9±0.63 g)."}, "[3]": {"tested_on": "HFD-fed Ucp1+/+ and Ucp1-/- mice", "test": "LP533401 in HFD-fed Ucp1+/+ and Ucp1-/- mice at thermoneutrality", "assay_type": "in vivo", "experimental": "Ucp1 heterozygous mice were acquired from Jackson Laboratories and bred to produce UCP1-null (Ucp1^−/−) and wild-type (Ucp1^+/+) littermates. In order to prevent thermal stress, mice in this colony were bred and housed in a room maintained at 30° C. All testing except for the CL-316,243 challenge occurred at this temperature.\nas §1\nIn order to establish whether the clinical benefits of Tph1 inhibition (weight loss and improvements in insulin sensitivity) are derived from increased thermogenesis mediated by UCP1, daily injections of LP533401 were performed using UCP1-null (Ucp1^−/−) and wild-type littermates (Ucp1^+/+) fed a HFD and housed under thermoneutral conditions (30° C.). […] Thus, the clinical benefits of Tph1 inhibition require UCP1 mediated thermogenesis."}, "5-HT receptor": {"tested_on": "5-HT receptor", "test": "Isoproterenol-induced lipolysis (FFA release) in immortalized BAT cells", "assay_type": "cell-based, mouse", "details": "co-treatment with the antagonist (3 μM), n=2", "quoted_text": "Briefly, confluent cells were placed in induction media (0.5 mM IBMX; 0.25 mM indomethacin; 2 μg/ml dexamethasone; 1 nM T3, 20 nM insulin) for two days and subsequently maintained on differentiation media (1 nM T3, 20 nM insulin). All experiments were performed on cultures 6-8 days post-induction. Unless otherwise indicated, cells were rinsed with PBS and media was changed to HEPES-buffered Krebs Ringer buffer (HKRB)+1% BSA. Where indicated, BAs were treated with serotonin for 30 min (100 μM; Sigma) followed by isoproterenol (1 nM, Sigma) for 4 h. The serotonin receptor antagonist, methysergide (3 μM) was used 45 min prior treatment with serotonin as above."}, "[4]": {"details": "HFD-fed C57Bl6 mice, Tph1 inhibitor 25 mg/kg daily i.p., values ± SEM, n = 7-8"}}, "data": [{"smiles": "Nc1nc(OC(c2ccc(-c3cccc(F)c3)cc2)C(F)(F)F)cc(-c2ccc(C[C@H](N)C(=O)O)cc2)n1", "note": "(stereo partly drawn) [LP533401, (2S)-2-amino-3-(4-(2-amino-6-(2,2,2-trifluoro-1-(3′-fluoro-[1,1′-biphenyl]-4-yl)ethoxy)pyrimidin-4-yl)phenyl)propanoic acid]", "values": [{"measurement": "accumulation of body fat", "setting": "HFD-fed C57Bl6 mice [1]; 25 mg/kg i.p., versus vehicle", "value": "lower accumulation"}, {"measurement": "circulating serotonin levels", "setting": "HFD-fed C57Bl6 mice [1]; 25 mg/kg i.p., versus vehicle", "value": "reduced"}, {"measurement": "glucose homeostasis", "setting": "HFD-fed C57Bl6 mice [1]; 25 mg/kg i.p., versus vehicle", "value": "improvements"}, {"measurement": "insulin sensitivity", "setting": "HFD-fed C57Bl6 mice [1]; 25 mg/kg i.p., versus vehicle", "value": "increased"}, {"measurement": "liver size", "setting": "HFD-fed C57Bl6 mice [1]; 25 mg/kg i.p., versus vehicle", "value": "reductions"}, {"measurement": "weight gain", "setting": "HFD-fed C57Bl6 mice [1]; 25 mg/kg i.p., versus vehicle (1-2 grams per week)", "value": "suppressed"}, {"measurement": "Tissue weight, Brown Adipose Tissue", "setting": "HFD-fed C57Bl6 mice [1]; [4]", "value": "153 ± 8.4", "unit": "mg"}, {"measurement": "Tissue weight, Epididymal Fat Pad", "setting": "HFD-fed C57Bl6 mice [1]; [4]", "value": "1157 ± 121", "unit": "mg"}, {"measurement": "Tissue weight, Inguinal Fat Pad", "setting": "HFD-fed C57Bl6 mice [1]; [4]", "value": "117 ± 16", "unit": "mg"}, {"measurement": "Tissue weight, Retroperitoneal Fat Pad", "setting": "HFD-fed C57Bl6 mice [1]; [4]", "value": "265 ± 29.9", "unit": "mg"}, {"measurement": "FDG uptake in BAT", "setting": "HFD-fed C57Bl6 mice [2]; 18FDG-PET/CT", "value": "increased"}, {"measurement": "FDG uptake into eWAT", "setting": "HFD-fed C57Bl6 mice [2]; PET, HFD-fed C57Bl6 mice", "value": "increased"}, {"measurement": "body mass", "setting": "HFD-fed C57Bl6 mice [2]; after 12 days of treatment, before any change in body mass", "value": "28.9 ± 0.63", "unit": "g"}, {"measurement": "oxygen consumption", "setting": "HFD-fed C57Bl6 mice [2]; dark and light cycles, after 12 days of treatment", "value": "increased"}, {"measurement": "browning of eWAT", "setting": "HFD-fed C57Bl6 mice [2]; macroscopically evident, with marked UCP1 immunostaining", "value": "Increased"}, {"measurement": "food intake", "setting": "HFD-fed C57Bl6 mice [2]; metabolic cages, P>0.05 vs vehicle, n=8", "value": "13.7 ± 0.45", "unit": "g"}, {"measurement": "activity levels", "setting": "HFD-fed C57Bl6 mice [2]; metabolic cages, after 12 days of treatment", "value": "without altering"}, {"measurement": "expression of UCP1 in BAT", "setting": "HFD-fed C57Bl6 mice [2]; mouse, in vivo", "value": "enhanced"}, {"measurement": "weight gain", "setting": "[3]; Ucp1+/+ mice, HFD, 30° C.", "value": "attenuated weight gain"}, {"measurement": "improvements in glucose tolerance", "setting": "[3]; Ucp1+/+ versus Ucp1-/- mice", "value": "entirely dependent on the expression of UCP1"}, {"measurement": "oxygen uptake and thermogenesis", "setting": "[3]; challenged with CL-316,243, only Ucp1+/+ mice", "value": "increase"}]}, {"smiles": "CC[C@@H](CO)NC(=O)[C@@H]1C=C2c3cccc4c3c(cn4C)C[C@H]2N(C)C1", "note": "[methysergide]", "values": [{"measurement": "effect of serotonin on isoproterenol-induced lipolysis", "setting": "5-HT receptor", "value": "blocked"}]}]}
